Laboratory results taken from patent publication US8440810B2, “Riboswitches, methods for their use, and compositions for use with riboswitches” (Yale University, priority 2002, dated 2013).
Entries after “also recorded” stand apart in the source; their conditions may differ. Like-named read-outs stand apart in the source and are kept apart here.

How the values were obtained:
[1] = system: 202-nucleotide mRNA leader (btuB); assay: Equilibrium dialysis with btuB mRNA leader
[2] = system: btuB leader-lacZ fusion; assay: btuB-lacZ expression assay; format: cell-based, E. coli; conditions: wild-type btuB leader
[3] = biological target: 202-nucleotide leader sequence of the btuB mRNA; format: binding, Escherichia coli; conditions: half-maximal structural modulation, 25° C., 20 mM MgCl2, pH 8.3; read-out: apparent KD
Description: Precursor mRNA leader molecules were prepared by in vitro transcription from templates generated by PCR (see In vivo Expression Constructs and Assays section below) and 5′ ^32p-labeled using methods described previously (Soukup and Breaker, Allosteric nucleic acid catalysts. Curr. Opin. Struct. Biol. 10, […] (2000)). Approximately 20 nM of labeled RNA precursor was incubated as described in the brief description of FIG. 1. Accompanying digestions were carried out using reaction conditions similar to those described previously (Soukup and Breaker, Relationship between internucleotide linkage geometry and the stability of […]. RNA 5, 1308-1325 (1999)). […]
Metabolite-dependent conformational changes in the 202-nucleotide leader sequence of the btuB mRNA. […] The image was generated using a phosphorimager (Molecular Dynamics), and cleavage yields were quantitated by using ImageQuant software. […]
The btuB mRNA leader forms a saturable binding site for AdoCbl. […] 5′-^32P-labeled mRNA leader molecules were incubated, separated, and analyzed as described in the in the legend to FIG. 1A, and include identical control and marker lanes as indicated. […] Fraction cleaved values were normalized relative to the highest and lowest cleavage values measured for each location, including the values obtained upon incubation in the absence of AdoCbl. […]

[4] = biological target: btuB mRNA leader mutants m4 and m5; format: binding, Escherichia coli; conditions: mutants m4 and m5 (possible P4/P9 pseudoknot)
[5] = biological target: ribD RNA; assay: In-line probing of ribD RNA (RFN element); format: binding, B. subtilis; conditions: read-out: apparent KD
Description: To assess whether the RFN element of ribD was responsive to FMN, a fragment of the corresponding 5′-UTR was 5′-^32P labeled and incubated in the absence and presence of FMN, and the resulting fragments were analyzed by polyacrylamide gel electrophoresis (PAGE). […] To obtain values for apparent dissociation constant (apparent KD) for FMN, in-line probing assays were repeated with trace amounts of ribD RNA and increasing concentrations of FMN; the ligand concentration that correlates with half-maximal modulation of RNA structure should reflect the apparent KD.

[6] = system: ribD leader region; assay: In vitro transcription of ribD leader region; format: biochemical; conditions: T7 or B. subtilis RNA polymerase, no additional protein factors
[7] = biological target: 179 lysC RNA; format: binding, B. subtilis
[8] = system: lysC 5′-UTR fused to lacZ reporter gene; format: cell-based, B. subtilis; conditions: wild-type construct, minimal medium plus 1 mM compound
[9] = biological target: RNA construct encompassing nucleotides 1 through 315 of the lysC 5′-UTR; conditions: read-out: apparent KD; aptamer plus expression platform
[10] = system: lysC 5′-UTR template; assay: In vitro transcription termination assay, lysC 5′-UTR; conditions: 10 mM ligand, E. coli RNA polymerase, single-round
[11] = biological target: 179 lysC RNA; assay: In-line probing of 179 lysC RNA; conditions: read-out: apparent KD; half-maximal structural modulation
[12] = system: yitJ, yoaD and metK leader constructs; assay: In vitro transcription termination with T7 RNA polymerase, yitJ, yoaD and metK leaders; conditions: 50 μM
[13] = system: metI leader construct; format: biochemical, B. subtilis
[14] = biological target: 124 yitJ RNA; assay: In-line probing of 124 yitJ RNA; format: binding, B. subtilis; conditions: minimized aptamer domain
[15] = biological target: 251 yitJ RNA; format: binding, B. subtilis
[16] = system: aptamer domain from B. subtilis cysH; format: binding
[17] = biological target: TPP-binding domain of A. thaliana (128-nucleotide RNA); assay: In-line probing of Arabidopsis TPP-binding domain; set-up: species or system Arabidopsis thaliana; conditions: read-out: apparent dissociation constant (KD)
[18] = system: 91 thiM RNA; format: binding, E. coli
Excerpt: (§1) Specifically, TPP-dependent modulation of the spontaneous cleavage of RNA constructs was visualized by polyacrylamide gel electrophoresis (PAGE). […] Some RNAs were subjected to no reaction, partial digestion with alkali, or partial digestion with RNase T1 (G-specific cleavage) (see FIG. 6a). Composite plots of the fraction of RNA cleaved at specific sites versus the logarithm of the concentration of ligand (e.g. FIG. 7a) were generated to provide an estimate of the apparent KD. Fraction cleaved values were normalized relative to the highest and lowest cleavage values measured for each site.
ii. The thiM and thiC mRNA Leaders Serve as High-Affinity Metabolite Receptors. […] Arrows reflect the estimated concentration of TPP needed to attain half maximal modulation of RNA (apparent KD). […] The boxed data was generated using TPP with the truncated RNAs 91 thiM and 111 thiC. […] Details for the RNA probing analysis are similar to those described above in connection with FIG. 6A. The graphs were generated by ImageQuant software.

[19] = biological target: 240 thiC RNA; assay: In-line probing of 240 thiC RNA; format: binding, E. coli; conditions: Example 2, FIG. 7A; read-out: apparent KD
Description: Some RNAs were subjected to no reaction, partial digestion with alkali, or partial digestion with RNase T1 (G-specific cleavage) (see FIG. 6a). Composite plots of the fraction of RNA cleaved at specific sites versus the logarithm of the concentration of ligand (e.g. FIG. 7a) were generated to provide an estimate of the apparent KD. Fraction cleaved values were normalized relative to the highest and lowest cleavage values measured for each site. […] Reactions were conducted and analyzed as described in above for FIG. 6A. […] The truncated RNA 111 thiC is boxed. Nucleotides enclosed in boxes identify an alternative pairing.

[20] = system: 165 thiM RNA; format: binding, E. coli; conditions: for Kd: read-out: apparent KD
Excerpt: as §1
NR, ^−OH and T1 represent RNAs subjected to no reaction, partial digestion with alkali, or partial digestion with RNase Tl (G-specific cleavage), respectively. Product bands representing cleavage after selected G residues are numbered and identified by filled arrowheads. The asterisk identifies modulation of RNA structure involving the Shine-Dalgarno (SD) sequence. Gel separations were analyzed using a phosphorimager (Molecular Dynamics) and quantitated using ImageQuant software.

[21] = system: 93 xpt RNA; assay: In-line probing of 93 xpt RNA; format: binding, B. subtilis
[22] = system: xpt-pbuX 5′-UTR fused to β-galactosidase reporter gene; assay: xpt-lacZ β-galactosidase reporter expression; format: cell-based, B. subtilis; conditions: wild-type xpt construct
[23] = biological target: purine-binding aptamer from a pool of random-sequence RNAs; conditions: cited from earlier work
[24] = system: wild-type ydhL riboswitch fused to β-galactosidase reporter gene; assay: ydhL-lacZ β-galactosidase reporter expression; format: cell-based, B. subtilis
[25] = system: 80 ydhL RNA; assay: In-line probing of 80 ydhL RNA; format: binding, B. subtilis
[26] = biological target: 201 xpt RNA; assay: In-line probing of 201 xpt RNA; conditions: read-out: apparent KD; limit of detection of the assay
[27] = system: purE RNA; assay: In-line probing of purE RNA; format: binding, B. subtilis; conditions: 1 μM ligand
[28] = system: xpt riboswitch variant with the C to U mutation at position 74, reporter construct; format: cell-based, B. subtilis
[29] = system: 93 xpt RNA; assay: Equilibrium dialysis with 93 xpt RNA; format: binding, B. subtilis

In the case of C/C1=C2/[N-]C([C@H](CC(N)=O)[C@@]2(C)CCC(=O)NC[C@@H](C)OP(=O)([O-])O[C@H]2[C@@H](O)[C@@H](n3cnc4cc(C)c(C)cc43)O[C@@H]2CO)[C@]2(C)N=C(/C(C)=C3N=C(/C=C4N=C1[C@@H](CCC(N)=O)C\4(C)C)[C@@H](CCC(N)=O)[C@]\3(C)CC(N)=O)[C@@H](CCC(N)=O)[C@]2(C)CC(N)=O.[CH2-][C@H]1O[C@@H](n2cnc3c(N)ncnc32)[C@@H](O)[C@@H]1O.[Co+3] [AdoCbl, 5′-deoxy-5′-adenosylcobalamin], the “restoration of equal tritium distribution by excess unlabeled compound” value ([1]; 5,000 pmoles unlabeled compound added to chamber b) is reported as “restores equal distribution of tritium”, the “cpm ratio (chamber b relative to a)” value ([1]; 3H-AdoCbl, mRNA leader in chamber b) is reported as ~2 and the “regulatory effector function on reporter gene inside cells” value [2] is reported as “down regulation of a reporter gene”. For the same molecule, the Kd [3] was ~300 nM and the Kd [4] was ~5 µM.

In the case of Cc1cc2nc3c(=O)[nH]c(=O)nc-3n(C[C@H](O)[C@H](O)[C@H](O)COP(=O)(O)O)c2cc1C [FMN, flavin mononucleotide], the Kd [5] is reported as ~5 nM and the “transcription termination at the intrinsic terminator” value [6] is reported as “specifically induced by FMN”.

For NCCCC[C@H](N)C(=O)O [L-lysine], the Kd ([7]; 1 μM RNA, 3H-lysine 50 nM to 2.5 μM, read-out: apparent KD (Scatchard plot)) was ~1000 nM, the “fraction of tritiated L-lysine in chamber b” value ([7]; 10 μM 179 lysC in chamber b, 50 nM 3H-lysine, 10 hr) was ~0.8 and the “restoration of equal tritium distribution by unlabeled competitor” value ([7]; 50 μM unlabeled compound, additional 10 hr) was “symmetric distribution of tritium is restored”. The “repression of β-galactosidase reporter expression” value [8] was “exhibits ligand-dependent modulation”, the Kd [9] was ~500 µM and the “terminated product relative to total transcription yield” value [10] was ~76%. It also gave a Kd [11] of ~1000 nM.

With C[S+](CC[C@H](N)C(=O)O)C[C@H]1O[C@@H](n2cnc3c(N)ncnc32)[C@H](O)[C@@H]1O (some centres unmarked) [SAM, S-adenosylmethionine] the transcription termination [12] was “modest transcription termination”, the termination product ([13]; 50 μM effector, wild-type metI) was ~75% and the “additional yield in transcription termination” value ([13]; mutant Mabc (six mutations)) was ~20%. For the same molecule, the Kd [14] was ~4 nM, the Kd [15] was ~200 nM and the “affinity poorer than that of yitJ” value [16] was “more than 2 orders of magnitude”.

With Cc1ncc(C[n+]2csc(CCO[P@](=O)(O)OP(=O)(O)O)c2C)c(N)n1 [TPP, thiamine pyrophosphate] the Kd [17] was ~50 nM, the “improvement of apparent KD compared to the longer construct (165 thiM)” value [18] was “approximately 20 fold” and the Kd [19] was 100 nM. For the same molecule, the structure modulation ([20]; 40 μM each compound) was “induce modulation”, the Kd ([20]; Example 2, FIG. 7A) was 600 nM and the Kd ([20]; thiM RNA as reported in Example 3 (FIG. 13)) was 500 nM.

For Nc1nc2nc[nH]c2c(=O)[nH]1 [guanine], the “modulation of spontaneous cleavage pattern” value ([21]; 1 μM (adenine as much as 1 mM), 93 xpt and 201 xpt) was “undergo significant alteration”, the Kd ([21]; wild-type xpt RNA, Example 8 (FIG. 39a), read-out: apparent KD) was ≤ 5 nM and the “repression of β-galactosidase reporter expression” value [22] was “repressed by guanine; also recorded: causes repression of β-galactosidase expression”. The Kd [23] was 1300 nM, the β-galactosidase activity [24] was “very low β-galactosidase activity” and the “binding / structural modulation” value [25] was “remains unchanged”. The Kd [26] was ≤ 5 nM, the allosteric response [27] was “responds allosterically to guanine” and the “regulation of reporter expression” value [28] was “loss of regulation upon addition of guanine”. The “tritiated guanine co-localized with RNA” value ([29]; 100 nM 3H-guanine, 300 nM RNA) was “greater than 90%”, the “redistribution of 3H-guanine by excess unlabeled competitor” value ([29]; 500 nM analog) was “redistributes” and the “shift of distribution of tritiated ligand by RNA” value ([29]; Example 8: 100 nM tritiated ligand, 3 μM RNA) was “able to shift the distribution of tritiated guanine”.
